Data: ChEMBL document CHEMBL1147253, “New polyoxygenated farnesylcyclohexenones, deacetoxyyanuthone A and its hydro derivative from the marine-derived fungus Penicillium sp” (2003)
Converted amounts (≈) assume the structure as drawn.

Columns and labels:
Assay type in all cases: functional
Conditions in all cases: read-out: ED50 (the source's name)
[1] = test system: SK-MEL-2; assay: Cytotoxicity against human SK-MEL-2 cells
[2] = test system: XF498; assay: Cytotoxicity against human XF498 cells
[3] = test system: HCT-15; assay: Cytotoxicity against human HCT15 cells
[4] = test system: A549; assay: Cytotoxicity against human A549 cells
[5] = test system: SK-OV-3; assay: Cytotoxicity against human SKOV3 cells

Molecule `CC(C)=CCC/C(C)=C\CC/C(C)=C\CC1=CC(=O)C(C)=CC1=O` has an EC50 [1] of 18.4 µg/mL (≈ 56.4 µM), an EC50 [2] of 38.1 µg/mL (≈ 117 µM) and an EC50 [3] of 42.6 µg/mL (≈ 130 µM). It also gave an EC50 [4] of 25.4 µg/mL (≈ 77.9 µM) and an EC50 [5] of 37.3 µg/mL (≈ 114 µM).
With `CC(C)=CCC/C(C)=C\CC/C(C)=C\Cc1cc(O)c(C)cc1O` the EC50 [1] was 4.8 µg/mL (≈ 14.6 µM), the EC50 [2] was 5.94 µg/mL (≈ 18.1 µM) and the EC50 [3] was 6.11 µg/mL (≈ 18.6 µM). The EC50 [4] was 4.73 µg/mL (≈ 14.4 µM) and the EC50 [5] was 5.31 µg/mL (≈ 16.2 µM).
For `COc1cccc2c1C(=O)c1c(O)c3c(c(O)c1C2=O)C[C@@](O)(C(=O)CO)C[C@@H]3O[C@H]1C[C@H](N)[C@H](O)[C@H](C)O1` [DOXORUBICIN], the EC50 [1] was 0.04 µg/mL (≈ 0.0736 µM), the EC50 [2] was 0.02 µg/mL (≈ 0.0368 µM) and the EC50 [3] was 0.79 µg/mL (≈ 1.45 µM). It also gave an EC50 [4] of 0.02 µg/mL (≈ 0.0368 µM) and an EC50 [5] of 0.09 µg/mL (≈ 0.166 µM).
`CC(C)=CCC/C(C)=C/CC/C(C)=C/C[C@@]12O[C@@H]1[C@H](O)C(C)=CC2=O` showed an EC50 [1] of 3.86 µg/mL (≈ 11.2 µM), an EC50 [2] of 10 µg/mL (≈ 29.1 µM) and an EC50 [3] of 10.1 µg/mL (≈ 29.2 µM). The EC50 [4] was 7.74 µg/mL (≈ 22.5 µM) and the EC50 [5] was 6.35 µg/mL (≈ 18.4 µM).
